Data published in paper PMC10669340, “Bioactive Compounds from an Endophytic Pezicula sp. Showing Antagonistic Effects against the Ash Dieback Pathogen” (Biomolecules, 2023).
Like-named read-outs stand apart in the source and are kept apart here.

Legend:
[1] = test system: Acinetobacter baumannii DSM 30008; assay: Antimicrobial serial dilution assay (MIC); assay type: cell-based; settings: n.i.: no inhibition
Experimental: (§1) The antimicrobial activity (minimum inhibitory concentration, MIC) of the compounds was determined against Acinetobacter baumannii DSM 30008, Bacillus subtilis DSM 10, Chromobacterium violaceum DSM 30191, Escherichia coli DSM 1116, Mycobacterium smegmatis ATCC 700084, Pseudomonas aeruginosa PA14, Staphylococcus aureus DSM 346, Candida albicans DSM1665, Mucor hiemalis DSM 2656, Pichia anomala DSM 6766, Rhodotorula glutinis DSM 10134 and Schizosaccharomyces pombe DSM 70572 in a serial dilution assay as previously described.

[2] = test system: Bacillus subtilis DSM 10; assay: Antimicrobial serial dilution assay (MIC); assay type: cell-based; settings: Bacillus subtilis DSM 10; n.i.: no inhibition
Experimental: as §1

[3] = test system: Candida albicans DSM1665; assay: Antimicrobial serial dilution assay (MIC); assay type: cell-based; settings: n.i.: no inhibition
Experimental: as §1

[4] = test system: Chromobacterium violaceum DSM 30191; assay: Antimicrobial serial dilution assay (MIC); assay type: cell-based; settings: n.i.: no inhibition
Experimental: as §1

[5] = test system: Escherichia coli DSM 1116; assay: Antimicrobial serial dilution assay (MIC); assay type: cell-based; settings: n.i.: no inhibition
Experimental: as §1

[6] = test system: Mucor hiemalis DSM 2656; assay: Antimicrobial serial dilution assay (MIC); assay type: cell-based; settings: Mucor hiemalis DSM 2656; n.i.: no inhibition
Experimental: as §1

[7] = test system: Mycobacterium smegmatis ATCC 700084; assay: Antimicrobial serial dilution assay (MIC); assay type: cell-based; settings: Mycobacterium smegmatis ATCC 700084; n.i.: no inhibition
Experimental: as §1

[8] = test system: Pichia anomala DSM 6766; assay: Antimicrobial serial dilution assay (MIC); assay type: cell-based; settings: Pichia anomala DSM 6766; n.i.: no inhibition
Experimental: as §1

[9] = test system: Pseudomonas aeruginosa PA14; assay: Antimicrobial serial dilution assay (MIC); assay type: cell-based; settings: n.i.: no inhibition
Experimental: as §1

[10] = test system: Rhodotorula glutinis DSM 10134; assay: Antimicrobial serial dilution assay (MIC); assay type: cell-based; settings: Rhodotorula glutinis DSM 10134; n.i.: no inhibition
Experimental: as §1

[11] = test system: Schizosaccharomyces pombe DSM 70572; assay: Antimicrobial serial dilution assay (MIC); assay type: cell-based; settings: Schizosaccharomyces pombe DSM 70572; n.i.: no inhibition
Experimental: as §1

[12] = test system: Staphylococcus aureus DSM 346; assay: Antimicrobial serial dilution assay (MIC); assay type: cell-based; settings: Staphylococcus aureus DSM 346; n.i.: no inhibition
Experimental: as §1

[13] = MTT cytotoxicity assay; assay type: cell-based; settings: read-out: Cytotoxic activity (IC50)
Experimental: (§2) The in vitro cytotoxicity assay was performed using the MTT (3-(4,5-dimethylthiayol-2-yl)-2,5-diphenyltetrazolium bromide) test in 96-well microtiter plates as previously described.

[14] = test system: panel of bacteria and fungi; assay: Antimicrobial serial dilution assay, whole panel (summary statements); assay type: cell-based
Experimental: as §1

[15] = test system: panel of mammalian cell lines; assay: MTT cytotoxicity assay, panel (summary statements); assay type: cell-based; settings: 4–6 only KB3.1 and L929
Experimental: as §2

[16] = test system: H. fraxineus (isolate RH02-T6-B4-2); assay: Agar disc diffusion assay; assay type: cell-based, Hymenoscyphus fraxineus; settings: 6 mm disc, 7 days, 21 °C, n.i.: no inhibition
Experimental: The antifungal activity of the isolated compounds against H. fraxineus was assessed by the disc diffusion method using 9 cm diameter petri dishes as previously described […] Three sterile filter paper discs per plate were gently placed on dried potato–dextrose agar. The fungicide nystatin was applied as the positive control (20 and 50 µg/paper disc) and methanol as the negative control (10 µL/paper disc). The test plates were incubated at 21 °C for 7 days, the inhibition diameters were measured, and the activity was evaluated compared to nystatin.
Figure S44: Agar disc (6 mm diam.) diffusion assay of compound CJ-17,572 (1) against H. fraxineus RH02-T6-B4-2, grown in 9-cm petri dishes on agar-based PD
medium with H. fraxineus, N - positive control nystatin, M - negative control methanol, CJ – 1.
Table S1. Antifungal activity of the compounds 1-6. n.i.: no inhibition, n.t.: not tested.
Compounds Amount ( µg/paper disc)
Peziculastatin n.t. n.i. 8 mm
Mycorrhizin A 19 mm 31 mm n.t.
Cryptosporioptide A n.t. n.i. n.i.
Cryptosporioptide B n.t. n.i. 8 mm
Cryptosporioptide C n.t. n.i. n.i.
Nystatin 21 mm 24 mm n.t.

[17] = test system: Staphylococcus aureus DSM 1104 preformed biofilm; assay: Biofilm assay, dispersal of preformed biofilm; assay type: cell-based; parameters: Antibiofilm activity, preformed S. aureus: unit not given here; settings: (/) no activity
Experimental: Staphylococcus aureus DSM 1104 from −20 °C stock was cultured in 25 mL CASO (Casein–Peptone Soymeal–Peptone; peptone from casein 15 g/L, peptone from soy flour 5 g/L, NaCl 5 g/L, pH 7.3) medium at 37 °C at 100 rpm in 250 mL for 20 h. The precultured suspension of S. aureus was adjusted so that its OD600 matched the turbidity of a 0.001 McFarland standard. S. aureus was incubated in 96-well tissue microtiter plates (TPP tissue culture ref.no 92196, Switzerland) for 24 h at 150 rpm in […] CASO medium with 4% glucose broth. The supernatant was removed from the wells and 150 μL of the respective media (fresh) was added to the wells, together with the serially diluted compounds (250–2 μg/mL). The plates were incubated for a further 24 h at 37 °C. Staining of the biofilms was carried out as described previously. Standard deviation (SD) of two repeats with duplicates each were 10% or less. Methanol (2.5%) and microporenic acid A (250–2 μg/mL) were used as solvent and positive controls. Error bars indicate SD with duplicates in two biological repeats.

[18] = test system: Candida albicans DSM 11225 biofilm; assay: Biofilm assay, inhibition of biofilm formation; assay type: cell-based; settings: (/) no activity
Experimental: The stock of fungal pathogen Candida albicans DSM 11225 from −20 °C was cultured in 25 mL YPD (Yeast extract Peptone Dextrose; dextrose 20 g/L, peptone 20 g/L, yeast extract 10 g/L) medium in a 250 mL flask at 30 °C with shaking 100 rpm for 18 h. Turbidity of the broth was measured and diluted to match the turbidity of a 0.05 McFarland standard in RPMI 1640 medium (Gibco, New York, NY, USA, Thermo Fisher Scientific). Afterwards, 150 μL of the fungal dispersion was added into each well of a 96-well microtiter plate (Falcon no. 351172, Thermo Fisher Scientific) and further incubated for 90 min. The supernatant was removed, and the plate was washed once by using PBS buffer. Compounds were serially diluted in 150 μL in fresh medium to concentrations of 250–2 μg/mL. Staining and analysis were conducted as previously described. Methanol (2.5%) and farnesol (250–2 μg/mL) were used as solvent and positive controls. Error bars indicate SD with duplicates in two biological repeats.

[19] = test system: Fraxineus excelsior leaves; assay: Phytotoxicity leaf puncture assay; settings: 1 mg/mL in MeOH, 20 µL on punctured leaves, evaluated after 3 days
Experimental: The phytotoxicity of the compounds 1, 3 and 4 was assessed using the leaf puncture assay as described previously. The other compounds could not be evaluated because of the limited quantity.
For this assay, similar leaves of the same Fraxineus excelsior plant were chosen onto which the compounds were applied. The pure compounds were dissolved at 1 mg/mL in MeOH. Then, 20 µL of test samples were applied to the adaxial sides of leaves that had previously been needle punctured. A total of 20 µL of MeOH in distilled water (4%) was applied on the leaves as the negative control and 1 mg/mL macrocidin A [23] as the positive control. Each treatment was repeated three times and then the leaves were placed on moistened paper filters in petri dishes (diameter 9 cm) to prevent the droplets from drying. The experiment was run in duplicate. Leaves were evaluated for the symptoms after 3 days.

SMILES | Minimum inhibitory concentration (MIC) [1] | Minimum inhibitory concentration (MIC) [2] | Minimum inhibitory concentration (MIC) [3] | Minimum inhibitory concentration (MIC) [4] | Minimum inhibitory concentration (MIC) [5] | Minimum inhibitory concentration (MIC) [6] | Minimum inhibitory concentration (MIC) [7] | Minimum inhibitory concentration (MIC) [8] | Minimum inhibitory concentration (MIC) [9] | Minimum inhibitory concentration (MIC) [10] | Minimum inhibitory concentration (MIC) [11] | Minimum inhibitory concentration (MIC) [12] | also measured
COC1=C(C(=O)[C@@]2(C)[C@@H](C)C=C[C@H]3C[C@@H](C)CC[C@@H]32)C(=O)[C@H]([C@@H](C)O)N1C [Compound 8, 2′-methyl-CJ-17,572] | n.i. | n.i. | n.i. | n.i. | n.i. | n.i. | n.i. | n.i. | n.i. | n.i. | n.i. | n.i. | IC50 ([13]; human, A431 squamous cell carcinoma cells): 20 µM; IC50 ([13]; human, A549 lung carcinoma cells): 35 µM; IC50 ([13]; human, KB3.1 endocervical adenocarcinoma cells, n.c.: no cytotoxicity): 15 µM; IC50 ([13]; human, MCF-7 breast adenocarcinoma cells): 1.8 µM; IC50 ([13]; human, PC-3 prostate cancer cells): 18 µM; IC50 ([13]; human, SKOV-3 ovarian carcinoma cells): 21 µM; IC50 ([13]; mouse, L929 fibroblast cells, n.c.: no cytotoxicity): 43 µM; antimicrobial activity against the tested microorganisms (in words) [14]: did not show any activity; cytotoxicity against the tested cell lines (in words) [15]: active against all the tested cell lines
CC12Oc3ccc(-c4ccc5c(c4O)C(=O)C4=C(O)C6OC6(C)C(OC(=O)CC(=O)O)C4(C)O5)c(O)c3C(=O)C1=C(O)C1OC1(C)C2OC(=O)CC(=O)O (stereo not shown) [Compound 4, Cryptosporioptide A] | n.i. | n.i. | n.i. | n.i. | n.i. | n.i. | n.i. | n.i. | n.i. | n.i. | n.i. | n.i. | Antifungal activity, inhibition diameter ([16]; 50 µg/paper disc): n.i.; Antifungal activity, inhibition diameter ([16]; 100 µg/paper disc): n.i.; Antibiofilm activity, preformed S. aureus ([17]; 62.5 µg/mL): 70; Antibiofilm activity, preformed S. aureus ([17]; 125 µg/mL): 73; Antibiofilm activity, preformed S. aureus ([17]; 250 µg/mL): 80; Antibiofilm activity, C. albicans ([18]; 31.3 µg/mL): 39; Antibiofilm activity, C. albicans ([18]; 62.5 µg/mL): 71; Antibiofilm activity, C. albicans ([18]; 125 µg/mL): 71; Antibiofilm activity, C. albicans ([18]; 250 µg/mL): 81; phytotoxic activity, leaf puncture assay [19]: brownish lesions
